# Experimental data from ChEMBL document CHEMBL5465560, “Selectivity Literature for EUbOPEN Chemogenomic Library” (2024).
# Experiments:
# [1] = molecular target: Wee1-like protein kinase (Homo sapiens) (UniProt P30291); assay: Selectivity interaction (Kinase panel (Invitrogen)) EUB0000639a WEE1; conditions: at 200 nM
# [2] = molecular target: T1, Non-receptor tyrosine-protein kinase TNK1 (Homo sapiens) (UniProt Q13470); assay: Selectivity interaction (KinomeScan (DiscoverX)) EUB0000695a TNK1; conditions: at 100 nM
# T1 sequence (whole entry): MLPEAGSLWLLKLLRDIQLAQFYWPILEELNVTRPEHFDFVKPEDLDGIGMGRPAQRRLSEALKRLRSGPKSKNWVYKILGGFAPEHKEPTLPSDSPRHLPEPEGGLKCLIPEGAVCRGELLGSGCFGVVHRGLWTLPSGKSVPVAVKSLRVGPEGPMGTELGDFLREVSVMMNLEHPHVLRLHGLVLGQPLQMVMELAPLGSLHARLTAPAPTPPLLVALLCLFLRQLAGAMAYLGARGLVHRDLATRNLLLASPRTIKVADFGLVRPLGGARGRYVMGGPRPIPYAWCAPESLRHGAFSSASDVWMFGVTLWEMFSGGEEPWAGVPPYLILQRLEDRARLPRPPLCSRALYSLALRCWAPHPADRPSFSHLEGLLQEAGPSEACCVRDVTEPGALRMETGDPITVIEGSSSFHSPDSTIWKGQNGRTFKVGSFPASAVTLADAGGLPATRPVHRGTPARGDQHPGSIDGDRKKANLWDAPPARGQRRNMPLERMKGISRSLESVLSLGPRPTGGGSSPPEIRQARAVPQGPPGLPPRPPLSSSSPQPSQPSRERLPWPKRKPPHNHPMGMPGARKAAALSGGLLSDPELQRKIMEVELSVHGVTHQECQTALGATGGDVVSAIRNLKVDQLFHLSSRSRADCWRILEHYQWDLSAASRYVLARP
# [3] = molecular target: T2, Serine/threonine-protein kinase PLK4 (Homo sapiens) (UniProt O00444); assay: Selectivity interaction (KinomeScan (DiscoverX)) EUB0000695a PLK4; conditions: at 100 nM
# T2 sequence (whole entry): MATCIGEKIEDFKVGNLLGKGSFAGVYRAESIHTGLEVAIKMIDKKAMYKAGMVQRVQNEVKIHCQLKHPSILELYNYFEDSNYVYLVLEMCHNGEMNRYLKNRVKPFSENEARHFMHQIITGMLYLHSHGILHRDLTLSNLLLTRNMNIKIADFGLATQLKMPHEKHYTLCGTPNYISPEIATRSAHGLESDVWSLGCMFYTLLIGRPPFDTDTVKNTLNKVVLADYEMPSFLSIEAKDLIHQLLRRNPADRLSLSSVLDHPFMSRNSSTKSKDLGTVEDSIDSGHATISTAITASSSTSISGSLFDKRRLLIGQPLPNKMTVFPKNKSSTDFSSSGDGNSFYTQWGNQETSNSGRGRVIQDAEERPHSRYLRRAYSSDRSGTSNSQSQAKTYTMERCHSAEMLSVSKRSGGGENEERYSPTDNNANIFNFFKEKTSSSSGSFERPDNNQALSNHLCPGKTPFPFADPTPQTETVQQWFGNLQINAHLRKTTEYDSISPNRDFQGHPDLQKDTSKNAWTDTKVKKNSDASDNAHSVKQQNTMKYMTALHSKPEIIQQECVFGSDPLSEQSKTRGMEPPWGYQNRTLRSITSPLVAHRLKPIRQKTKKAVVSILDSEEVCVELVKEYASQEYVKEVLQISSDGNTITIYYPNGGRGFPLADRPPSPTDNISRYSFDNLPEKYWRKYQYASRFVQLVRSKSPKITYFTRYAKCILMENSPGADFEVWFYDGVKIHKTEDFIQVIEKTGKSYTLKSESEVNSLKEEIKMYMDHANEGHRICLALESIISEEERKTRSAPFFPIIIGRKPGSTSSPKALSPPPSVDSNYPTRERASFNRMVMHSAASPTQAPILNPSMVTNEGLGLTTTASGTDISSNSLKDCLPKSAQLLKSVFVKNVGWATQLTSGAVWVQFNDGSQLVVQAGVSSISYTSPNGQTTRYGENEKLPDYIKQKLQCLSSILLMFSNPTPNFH
# [4] = molecular target: Serine/threonine-protein kinase SBK1 (Homo sapiens) (UniProt Q52WX2); assay: Selectivity interaction (Ambit KINOMEscan and KiNATiv profiling in Jurkat cells) EUB0000090b SBK1; format: cell-based; conditions: at 1 µM
# Sequence of Serine/threonine-protein kinase SBK1 (Homo sapiens) (Q52WX2 whole entry): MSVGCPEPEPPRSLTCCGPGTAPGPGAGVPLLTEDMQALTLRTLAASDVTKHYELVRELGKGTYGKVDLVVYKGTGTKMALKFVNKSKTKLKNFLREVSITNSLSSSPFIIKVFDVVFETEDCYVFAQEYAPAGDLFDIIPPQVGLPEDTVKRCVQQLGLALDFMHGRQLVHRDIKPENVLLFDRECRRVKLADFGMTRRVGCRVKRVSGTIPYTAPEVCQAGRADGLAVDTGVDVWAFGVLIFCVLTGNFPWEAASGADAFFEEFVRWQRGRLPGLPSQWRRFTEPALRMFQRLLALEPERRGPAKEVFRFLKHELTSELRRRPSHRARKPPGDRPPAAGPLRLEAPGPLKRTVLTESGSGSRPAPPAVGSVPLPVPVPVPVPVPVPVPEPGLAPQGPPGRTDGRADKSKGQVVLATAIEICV
# [5] = molecular target: T3, Ephrin type-A receptor 1 (Homo sapiens) (UniProt P21709); assay: Selectivity interaction (KinomeScan (DiscoverX)) EUB0001619a EPHA1; conditions: at 1 µM
# T3 sequence (whole entry): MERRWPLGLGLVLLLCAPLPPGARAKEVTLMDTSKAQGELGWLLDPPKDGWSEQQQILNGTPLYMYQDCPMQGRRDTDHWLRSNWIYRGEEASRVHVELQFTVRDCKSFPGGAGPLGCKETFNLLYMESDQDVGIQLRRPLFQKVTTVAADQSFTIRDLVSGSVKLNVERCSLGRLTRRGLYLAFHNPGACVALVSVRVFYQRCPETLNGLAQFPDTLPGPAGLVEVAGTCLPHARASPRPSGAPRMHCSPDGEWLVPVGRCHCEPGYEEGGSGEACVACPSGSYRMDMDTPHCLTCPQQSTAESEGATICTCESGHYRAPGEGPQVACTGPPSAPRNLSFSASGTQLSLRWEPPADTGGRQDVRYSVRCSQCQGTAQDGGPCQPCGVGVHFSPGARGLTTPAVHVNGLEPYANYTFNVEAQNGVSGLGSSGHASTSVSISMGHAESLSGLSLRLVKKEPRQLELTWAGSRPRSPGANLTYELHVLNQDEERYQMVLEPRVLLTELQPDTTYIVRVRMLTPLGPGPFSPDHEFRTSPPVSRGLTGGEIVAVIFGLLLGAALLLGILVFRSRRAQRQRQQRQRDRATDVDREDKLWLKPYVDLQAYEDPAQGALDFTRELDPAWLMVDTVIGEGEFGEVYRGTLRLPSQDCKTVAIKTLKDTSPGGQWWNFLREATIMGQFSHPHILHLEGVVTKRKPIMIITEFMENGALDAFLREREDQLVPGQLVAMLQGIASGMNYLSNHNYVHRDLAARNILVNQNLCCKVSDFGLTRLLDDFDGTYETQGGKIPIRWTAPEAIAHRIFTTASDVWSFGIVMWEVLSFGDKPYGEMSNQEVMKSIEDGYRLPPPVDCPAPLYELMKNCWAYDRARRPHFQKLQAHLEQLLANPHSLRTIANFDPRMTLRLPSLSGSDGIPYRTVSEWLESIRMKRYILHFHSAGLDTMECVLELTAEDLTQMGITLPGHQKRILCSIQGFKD
# Sequence of Wee1-like protein kinase (Homo sapiens) (P30291 whole entry, looked up): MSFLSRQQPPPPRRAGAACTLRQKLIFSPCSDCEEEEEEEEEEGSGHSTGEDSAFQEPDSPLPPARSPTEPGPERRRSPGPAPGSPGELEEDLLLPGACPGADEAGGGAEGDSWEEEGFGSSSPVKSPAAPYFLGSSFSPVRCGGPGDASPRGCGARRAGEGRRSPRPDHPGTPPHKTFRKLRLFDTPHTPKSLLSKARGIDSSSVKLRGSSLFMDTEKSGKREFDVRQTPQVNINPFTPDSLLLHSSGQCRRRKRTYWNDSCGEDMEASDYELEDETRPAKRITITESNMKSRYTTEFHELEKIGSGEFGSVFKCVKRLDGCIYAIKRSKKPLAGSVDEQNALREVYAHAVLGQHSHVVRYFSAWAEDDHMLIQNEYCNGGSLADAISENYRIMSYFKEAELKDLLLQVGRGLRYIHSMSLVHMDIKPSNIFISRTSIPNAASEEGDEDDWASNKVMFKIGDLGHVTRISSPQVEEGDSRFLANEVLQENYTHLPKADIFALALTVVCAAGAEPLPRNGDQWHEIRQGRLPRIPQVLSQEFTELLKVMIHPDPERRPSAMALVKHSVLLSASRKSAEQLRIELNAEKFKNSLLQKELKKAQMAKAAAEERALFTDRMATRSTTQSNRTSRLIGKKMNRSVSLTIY
structure (smiles),measurement,setting,value
CC[C@@H]1[C@H](F)C(=O)N[C@@H]1COc1nccc2cc(C(N)=O)c(OC)cc12 [ZIMLOVISERTIB],% of inhibition,[1],-0.606%
Cc1cc(F)c(C(=O)Nc2cccc(-c3nncn3C(C)C)n2)cc1-n1cnc(C2CC2)c1,% of control,[2],100%
same,% of control,[3],100%
CN(C)C/C=C/C(=O)Nc1ccc(C(=O)N2CCCC(Nc3ncc(Cl)c(-c4c[nH]c5ccccc45)n3)C2)cc1 (stereo not given),% of control,[4],100%
N#Cc1cccc(-c2c[nH]c3ncnc(N4CCOCC4)c23)c1,% of control,[5],100%
